# From US11679110B2, “Methods of treating disorders using CSF1R inhibitors” (Deciphera Pharmaceuticals, LLC, priority 2018, dated 2023)
# Read-outs that look alike come from different tables or passages of the source.
# Experiment: Plasma pharmacokinetics of Compound 1 in patients with advanced solid tumor malignancies and TGCT
# Assay type: in vivo, human
# Conditions: for Cmax / AUC(0-t) / Tmax: human, plasma, oral; for Tmax: Median (Min, Max)
# Method: PK analysis was conducted on all 38 patients. Serial blood samples were collected for PK and took place on either Day −7, Cycle 1, Day 1 (C1D1) and C2D1 at pre-dose, 0.5, 1, 2, 4, 6, 8, 10-12, and 24 hr time points or Day −7, C1D1, C1D8, and C2D1 at pre-dose, 1, 2, 4, 6, and 8 hr time points, or C1D1, C1D8, and C2D1 at pre-dose, 1, 2, 4, 6, and 8 hr time points. High fat meal was given prior to dosing of Compound 1 on Day −7. PD effects were measured by two methodologies: 1) depletion of CSF1R-expressing monocytes in peripheral blood (Cohorts 1-7) from C1D1, C1D15 and C2D1; and 2) increase of plasma levels of CSF1 and IL-34, the ligands for CSF1R (Cohorts 1-7) on C1D1, C1D15, and C2D1. For the CD16^+ monocyte assay, whole blood collected in an EDTA vacutainer was aliquoted into tubes and incubated with fluorescently-labeled antibodies (CD14-Alexa488 (BD Pharmingen); CD16-PE-Cy7 (BD Pharmingen); and TIE2-APC (R&D Systems). After incubation, red blood cells were lysed, and the remaining cells were washed several times before being analyzed on a flow cytometer. For the plasma CSF1 assay or IL-34, whole blood collected in an EDTA vacutainer was centrifuged, and the plasma was collected and frozen. Plasma levels of CSF1 or IL-34 were measured using a commercial ELISA kit (R&D Systems).
# Cohort 1 had daily dosing.
smiles,measurement,setting,value
"Cc1nc(-c2cnc(NC(C)C)n(C)c2=O)ccc1Oc1ccnc(-c2cnn(C)c2)c1 [Compound 1, 2-(isopropylamino)-3-methyl-5-(6-methyl-5-((2-(1-methyl-1H-pyrazol-4-yl)pyridin-4-yl)oxy)pyridin-2-yl)pyrimidin-4(3H)-one]",Cmax,"20 mg, Cohort 3 20 mg Weekly after 5-day QD loading dose, Day-7, GM (CV %)",242 ng/mL
same,AUC(0-t),"20 mg, Cohort 3 20 mg Weekly after 5-day QD loading dose, Day-7, GM (CV %), read-out: AUC0-8",1320 ng·h/mL
same,Tmax,"20 mg, Cohort 3 20 mg Weekly after 5-day QD loading dose, Day-7",4 h
same,Cmax,"20 mg, Cohort 4 20 mg QD x 5 d, BIW maintenance dose, C1D1, Geo Mean",268 ng/mL
same,AUC(0-t),"20 mg, Cohort 4 20 mg QD x 5 d, BIW maintenance dose, C1D1, Geo Mean, read-out: AUC0-8 h",1610 ng·h/mL
same,Cmax,"20 mg, Cohort 4 20 mg QD x 5 d, BIW maintenance dose, C1D8, Geo Mean",685 ng/mL
same,AUC(0-t),"20 mg, Cohort 4 20 mg QD x 5 d, BIW maintenance dose, C1D8, Geo Mean, read-out: AUC0-8 h",4660 ng·h/mL
same,Cmax,"20 mg, Cohort 4 20 mg QD x 5 d, BIW maintenance dose, C2D1, Geo Mean",642 ng/mL
same,AUC(0-t),"20 mg, Cohort 4 20 mg QD x 5 d, BIW maintenance dose, C2D1, Geo Mean, read-out: AUC0-8 h",4300 ng·h/mL
same,Cmax,"20 mg, Cohort 4 20 mg QD x 5 d, BIW maintenance dose, Day -7, Geo Mean",183 ng/mL
same,AUC(0-t),"20 mg, Cohort 4 20 mg QD x 5 d, BIW maintenance dose, Day -7, Geo Mean, read-out: AUC0-8 h",1090 ng·h/mL
same,Cmax,"20 mg, Cohort 4 20 mg Twice Weekly after 5-day QD loading dose, C1D1, GM (CV %)",268 ng/mL
same,AUC(0-t),"20 mg, Cohort 4 20 mg Twice Weekly after 5-day QD loading dose, C1D1, GM (CV %), read-out: AUC0-8",1610 ng·h/mL
same,Tmax,"20 mg, Cohort 4 20 mg Twice Weekly after 5-day QD loading dose, C1D1",0.75 h
same,Cmax,"20 mg, Cohort 4 20 mg Twice Weekly after 5-day QD loading dose, C1D8, GM (CV %)",685 ng/mL
same,AUC(0-t),"20 mg, Cohort 4 20 mg Twice Weekly after 5-day QD loading dose, C1D8, GM (CV %), read-out: AUC0-8",4660 ng·h/mL
same,Tmax,"20 mg, Cohort 4 20 mg Twice Weekly after 5-day QD loading dose, C1D8",2.25 h
same,Cmax,"20 mg, Cohort 4 20 mg Twice Weekly after 5-day QD loading dose, C2D1, GM (CV %)",642 ng/mL
same,AUC(0-t),"20 mg, Cohort 4 20 mg Twice Weekly after 5-day QD loading dose, C2D1, GM (CV %), read-out: AUC0-8",4300 ng·h/mL
same,Tmax,"20 mg, Cohort 4 20 mg Twice Weekly after 5-day QD loading dose, C2D1",0.5 h
same,Cmax,"20 mg, Cohort 4 20 mg Twice Weekly after 5-day QD loading dose, Day-7, GM (CV %)",183 ng/mL
same,AUC(0-t),"20 mg, Cohort 4 20 mg Twice Weekly after 5-day QD loading dose, Day-7, GM (CV %), read-out: AUC0-8",1090 ng·h/mL
same,Tmax,"20 mg, Cohort 4 20 mg Twice Weekly after 5-day QD loading dose, Day-7",4 h
same,AUC(0-t),"20 mg, Cohort 7 20 mg QD after 3-day 50 mg QD loading dose, C2D1, GM (CV %), read-out: AUC0-8",7980 ng·h/mL
same,Cmax,"30 mg, Cohort 5 30 mg QD x 5 d, BIW maintenance dose, C1D1, Geo Mean",600 ng/mL
same,AUC(0-t),"30 mg, Cohort 5 30 mg QD x 5 d, BIW maintenance dose, C1D1, Geo Mean, read-out: AUC0-8 h",3390 ng·h/mL
same,Cmax,"30 mg, Cohort 5 30 mg QD x 5 d, BIW maintenance dose, C1D8, Geo Mean",1400 ng/mL
same,AUC(0-t),"30 mg, Cohort 5 30 mg QD x 5 d, BIW maintenance dose, C1D8, Geo Mean, read-out: AUC0-8 h",8800 ng·h/mL
same,Cmax,"30 mg, Cohort 5 30 mg QD x 5 d, BIW maintenance dose, C2D1, Geo Mean",953 ng/mL
same,AUC(0-t),"30 mg, Cohort 5 30 mg QD x 5 d, BIW maintenance dose, C2D1, Geo Mean, read-out: AUC0-8 h",5420 ng·h/mL
same,Cmax,"30 mg, Cohort 5 30 mg QD x 5 d, BIW maintenance dose, Day -7, Geo Mean",278 ng/mL
same,AUC(0-t),"30 mg, Cohort 5 30 mg QD x 5 d, BIW maintenance dose, Day -7, Geo Mean, read-out: AUC0-8 h",1390 ng·h/mL
same,Cmax,"30 mg, Cohort 5 30 mg Twice Weekly after 5-day QD loading dose, C1D1, GM (CV %)",422 ng/mL
same,AUC(0-t),"30 mg, Cohort 5 30 mg Twice Weekly after 5-day QD loading dose, C1D1, GM (CV %), read-out: AUC0-8",2250 ng·h/mL
same,Tmax,"30 mg, Cohort 5 30 mg Twice Weekly after 5-day QD loading dose, C1D1",1 h
same,Cmax,"30 mg, Cohort 5 30 mg Twice Weekly after 5-day QD loading dose, C1D8, GM (CV %)",1160 ng/mL
same,AUC(0-t),"30 mg, Cohort 5 30 mg Twice Weekly after 5-day QD loading dose, C1D8, GM (CV %), read-out: AUC0-8",7160 ng·h/mL
same,Tmax,"30 mg, Cohort 5 30 mg Twice Weekly after 5-day QD loading dose, C1D8",1 h
same,Cmax,"30 mg, Cohort 5 30 mg Twice Weekly after 5-day QD loading dose, C2D1, GM (CV %)",822 ng/mL
same,AUC(0-t),"30 mg, Cohort 5 30 mg Twice Weekly after 5-day QD loading dose, C2D1, GM (CV %), read-out: AUC0-8",5420 ng·h/mL
same,Tmax,"30 mg, Cohort 5 30 mg Twice Weekly after 5-day QD loading dose, C2D1",1.5 h
same,Cmax,"30 mg, Cohort 5 30 mg Twice Weekly after 5-day QD loading dose, Day-7, GM (CV %)",278 ng/mL
same,AUC(0-t),"30 mg, Cohort 5 30 mg Twice Weekly after 5-day QD loading dose, Day-7, GM (CV %), read-out: AUC0-8",1390 ng·h/mL
same,Cmax,"30 mg, Cohort 6 30 mg QD x 5 d, BIW maintenance dose (so in the source), C2D1, Geo Mean",1150 ng/mL
same,AUC(0-t),"30 mg, Cohort 6 30 mg QD x 5 d, BIW maintenance dose (so in the source), C2D1, Geo Mean, read-out: AUC0-8 h",7290 ng·h/mL
same,Cmax,"40 mg, Cohort 6 40 mg Twice Weekly after 5-day QD loading dose, C1D1, GM (CV %)",830 ng/mL
same,AUC(0-t),"40 mg, Cohort 6 40 mg Twice Weekly after 5-day QD loading dose, C1D1, GM (CV %), read-out: AUC0-8",4790 ng·h/mL
same,Cmax,"40 mg, Cohort 6 40 mg Twice Weekly after 5-day QD loading dose, C1D8, GM (CV %)",1860 ng/mL
same,AUC(0-t),"40 mg, Cohort 6 40 mg Twice Weekly after 5-day QD loading dose, C1D8, GM (CV %), read-out: AUC0-8",12000 ng·h/mL
same,Tmax,"40 mg, Cohort 6 40 mg Twice Weekly after 5-day QD loading dose, C1D8",1 h
same,Cmax,"40 mg, Cohort 6 40 mg Twice Weekly after 5-day QD loading dose, C2D1, GM (CV %)",1150 ng/mL
same,AUC(0-t),"40 mg, Cohort 6 40 mg Twice Weekly after 5-day QD loading dose, C2D1, GM (CV %), read-out: AUC0-8",7290 ng·h/mL
same,Tmax,"40 mg, Cohort 6 40 mg Twice Weekly after 5-day QD loading dose, C2D1",1 h
same,Cmax,"40 mg, Cohort 6 40 mg Twice Weekly after 5-day QD loading dose, Day-7, GM (CV %)",454 ng/mL
same,AUC(0-t),"40 mg, Cohort 6 40 mg Twice Weekly after 5-day QD loading dose, Day-7, GM (CV %), read-out: AUC0-8",2250 ng·h/mL
same,Tmax,"40 mg, Cohort 6 40 mg Twice Weekly after 5-day QD loading dose, Day-7",4 h
same,Cmax,"50 mg, Cohort 7 50 mg QD x 3 d, QD maintenance dose, C2D1, Geo Mean",1250 ng/mL
same,AUC(0-t),"50 mg, Cohort 7 50 mg QD x 3 d, QD maintenance dose, C2D1, Geo Mean, read-out: AUC0-8 h",7980 ng·h/mL
same,Cmax,"Cohort 7 20 mg QD after 3-day 50 mg QD loading dose, C1D1, GM (CV %)",440 ng/mL
same,AUC(0-t),"Cohort 7 20 mg QD after 3-day 50 mg QD loading dose, C1D1, GM (CV %), read-out: AUC0-8",2310 ng·h/mL
same,Cmax,"Cohort 7 20 mg QD after 3-day 50 mg QD loading dose, C1D8, GM (CV %)",1010 ng/mL
same,AUC(0-t),"Cohort 7 20 mg QD after 3-day 50 mg QD loading dose, C1D8, GM (CV %), read-out: AUC0-8",6740 ng·h/mL
same,Cmax,"Cohort 7 20 mg QD after 3-day 50 mg QD loading dose, C2D1, GM (CV %)",840 ng/mL
same,Cmax,"Cohort 7 20 mg QD after 3-day 50 mg QD loading dose, Day-7, GM (CV %)",272 ng/mL
same,AUC(0-t),"Cohort 7 20 mg QD after 3-day 50 mg QD loading dose, Day-7, GM (CV %), read-out: AUC0-8",800 ng·h/mL
same,Tmax,"Cohort 7 20 mg QD after 3-day 50 mg QD loading dose, Day-7",5 h
same,half-life,"patients, dose cohorts 1 to 7, no accurate estimation",long half-life
